Results taken from ChEMBL document CHEMBL5055633, “Amphipathic Barbiturates as Mimics of Antimicrobial Peptides and the Marine Natural Products Eusynstyelamides with Activity against Multi-resistant Clinical Isolates” (J Med Chem, 2021).

Assays:
HepG2 = test: Cytotoxicity against human HepG2 cells assessed as reduction in cell viability incubated for 24 hrs by colorimetric tetrazolium assay; type: functional, cell-based; conditions: HepG2, 24 h
[1] = Hemolytic activity in human erythrocytes incubated for 1 hr by microplate reader; type: functional, cell-based; conditions: erythrocyte
Pseudomonas aeruginosa [2] = test: Antimicrobial activity against Pseudomonas aeruginosa PAO1 assessed as reduction in bacterial growth incubated for 48 hrs by microdilution susceptibility test; type: functional
Escherichia coli [3] = test: Antimicrobial activity against Escherichia coli ATCC 25922 assessed as reduction in bacterial growth incubated for 48 hrs by microdilution susceptibility test; type: functional
[4] = tested on: Corynebacterium glutamicum; test: Antimicrobial activity against Corynebacterium glutamicum ATCC 13032 assessed as reduction in bacterial growth incubated for 48 hrs by microdilution susceptibility test; type: functional
Staphylococcus aureus [5] = test: Antimicrobial activity against Staphylococcus aureus ATCC 9144 assessed as reduction in bacterial growth incubated for 48 hrs by microdilution susceptibility test; type: functional
MRC5 = test: Cytotoxicity against human MRC5 cells assessed as reduction in cell viability incubated for 24 hrs by colorimetric tetrazolium assay; type: functional, cell-based; conditions: MRC5, 24 h
Staphylococcus aureus [6] = test: Antimicrobial activity against extended spectrum-lactamase-carbapenemas producing Staphylococcus aureus N315 assessed as reduction in bacterial growth incubated for 48 hrs by microdilution method; type: functional
Staphylococcus aureus [7] = test: Antimicrobial activity against extended spectrum-lactamase-carbapenemas producing Staphylococcus aureus NCTC 10442 assessed as reduction in bacterial growth incubated for 48 hrs by microdilution method; type: functional
Staphylococcus aureus [8] = test: Antimicrobial activity against extended spectrum-lactamase-carbapenemas producing Staphylococcus aureus strain 85/2082 assessed as reduction in bacterial growth incubated for 48 hrs by microdilution method; type: functional
Staphylococcus aureus [9] = test: Antimicrobial activity against extended spectrum-lactamase-carbapenemas producing Staphylococcus aureus strain WIS assessed as reduction in bacterial growth incubated for 48 hrs by microdilution method; type: functional
Staphylococcus aureus [10] = test: Antimicrobial activity against extended spectrum-lactamase-carbapenemas producing Staphylococcus aureus strain IHT 99040 assessed as reduction in bacterial growth incubated for 48 hrs by microdilution method; type: functional
Enterococcus faecium [11] = test: Antimicrobial activity against extended spectrum-lactamase-carbapenemas producing Enterococcus faecium strain 50673722 assessed as reduction in bacterial growth incubated for 48 hrs by microdilution method; type: functional
Enterococcus faecium [12] = test: Antimicrobial activity against extended spectrum-lactamase-carbapenemas producing Enterococcus faecium strain 50901530 assessed as reduction in bacterial growth incubated for 48 hrs by microdilution method; type: functional
Enterococcus faecium [13] = test: Antimicrobial activity against extended spectrum-lactamase-carbapenemas producing Enterococcus faecium strain K36-18 assessed as reduction in bacterial growth incubated for 48 hrs by microdilution method; type: functional
Enterococcus faecium [14] = test: Antimicrobial activity against extended spectrum-lactamase-carbapenemas producing Enterococcus faecium strain 50758899 assessed as reduction in bacterial growth incubated for 48 hrs by microdilution method; type: functional
Enterococcus faecium [15] = test: Antimicrobial activity against extended spectrum-lactamase-carbapenemas producing Enterococcus faecium strain TUH.50-22 assessed as reduction in bacterial growth incubated for 48 hrs by microdilution method; type: functional
Escherichia coli [16] = test: Antimicrobial activity against oxacillinase-producing Escherichia coli 50579417 assessed as reduction in bacterial growth incubated for 48 hrs by microdilution method; type: functional
Escherichia coli [17] = test: Antimicrobial activity against verona integron-encoded metallo-beta-lactamase-29-producing Escherichia coli 50639799 assessed as reduction in bacterial growth incubated for 48 hrs by microdilution method; type: functional
Escherichia coli [18] = test: Antimicrobial activity against New Delhi metallo-beta lactamase-1 producing Escherichia coli 50676002 assessed as reduction in bacterial growth incubated for 48 hrs by microdilution method; type: functional
Escherichia coli [19] = test: Antimicrobial activity against New Delhi metallo-beta lactamase-1 producing Escherichia coli 50739822 assessed as reduction in bacterial growth incubated for 48 hrs by microdilution method; type: functional
Escherichia coli [20] = test: Antimicrobial activity against imipenem-type carbapenemase-26 producing Escherichia coli 50857972 assessed as reduction in bacterial growth incubated for 48 hrs by microdilution method; type: functional
Pseudomonas aeruginosa [21] = test: Antimicrobial activity against verona integron-encoded metallo-beta-lactamase-2 producing Pseudomonas aeruginosa K34-7 assessed as reduction in bacterial growth incubated for 48 hrs by microdilution method; type: functional
Pseudomonas aeruginosa [22] = test: Antimicrobial activity against verona integron-encoded metallo-beta-lactamase-4 producing Pseudomonas aeruginosa K34-73 assessed as reduction in bacterial growth incubated for 48 hrs by microdilution method; type: functional
Pseudomonas aeruginosa [23] = test: Antimicrobial activity against imipenem-type carbapenemase-14 producing Pseudomonas aeruginosa K44-24 assessed as reduction in bacterial growth incubated for 48 hrs by microdilution method; type: functional
Pseudomonas aeruginosa [24] = test: Antimicrobial activity against New Delhi metallo-beta lactamase-1 producing Pseudomonas aeruginosa 50692172 assessed as reduction in bacterial growth incubated for 48 hrs by microdilution method; type: functional
Pseudomonas aeruginosa [25] = test: Antimicrobial activity against verona integron-encoded metallo-beta-lactamase producing Pseudomonas aeruginosa 50692520 assessed as reduction in bacterial growth incubated for 48 hrs by microdilution method; type: functional
[26] = Antimicrobial activity against carbapenemase producing Klebsiella pneumoniae K47-25 assessed as reduction in bacterial growth incubated for 48 hrs by microdilution method; type: functional
[27] = Antimicrobial activity against New Delhi metallo-beta lactamase-1 Klebsiella pneumoniae K66-45 assessed as reduction in bacterial growth incubated for 48 hrs by microdilution method; type: functional
[28] = Antimicrobial activity against New Delhi metallo-beta lactamase-1 and oxacillinase -181 producing Klebsiella pneumoniae 50531633 assessed as reduction in bacterial growth incubated for 48 hrs by microdilution method; type: functional
[29] = Antimicrobial activity against oxacillinase-245 producing Klebsiella pneumoniae 50625602 assessed as reduction in bacterial growth incubated for 48 hrs by microdilution method; type: functional
[30] = Antimicrobial activity against verona integron-encoded metallo-beta-lactamase -1 producing Klebsiella pneumoniae 50667959 assessed as reduction in bacterial growth incubated for 48 hrs by microdilution method; type: functional
Acinetobacter baumannii [31] = test: Antimicrobial activity against oxacillinase-58 producing Acinetobacter baumannii K12-21 assessed as reduction in bacterial growth incubated for 48 hrs by microdilution method; type: functional
Acinetobacter baumannii [32] = test: Antimicrobial activity against oxacillinase-23 producing Acinetobacter baumannii K44-35 assessed as reduction in bacterial growth incubated for 48 hrs by microdilution method; type: functional
Acinetobacter baumannii [33] = test: Antimicrobial activity against oxacillinase-23 producing Acinetobacter baumannii K47-42 assessed as reduction in bacterial growth incubated for 48 hrs by microdilution method; type: functional
Acinetobacter baumannii [34] = test: Antimicrobial activity against oxacillinase-24 producing Acinetobacter baumannii K55-13 assessed as reduction in bacterial growth incubated for 48 hrs by microdilution method; type: functional
Acinetobacter baumannii [35] = test: Antimicrobial activity against oxacillinase-23 producing Acinetobacter baumannii K63-58 assessed as reduction in bacterial growth incubated for 48 hrs by microdilution method; type: functional

Row | SMILES | IC50 (HepG2) | EC50 [1] | MIC (Pseudomonas aeruginosa [2]) | MIC (Escherichia coli [3]) | MIC [4] | MIC (Staphylococcus aureus [5]) | IC50 (MRC5) | MIC (Staphylococcus aureus [6]) | MIC (Staphylococcus aureus [7]) | MIC (Staphylococcus aureus [8]) | MIC (Staphylococcus aureus [9]) | MIC (Staphylococcus aureus [10]) | MIC (Enterococcus faecium [11]) | MIC (Enterococcus faecium [12]) | MIC (Enterococcus faecium [13]) | MIC (Enterococcus faecium [14]) | MIC (Enterococcus faecium [15]) | MIC (Escherichia coli [16]) | MIC (Escherichia coli [17]) | MIC (Escherichia coli [18]) | also measured
1 | NCCCCN1C(=O)N(CCCCN)C(=O)C(Cc2ccc(C(F)(F)F)cc2)(Cc2ccc(C(F)(F)F)cc2)C1=O.O=C(O)C(F)(F)F.O=C(O)C(F)(F)F | 40 µg/mL | > 398 µg/mL | 64 µg/mL | 128 µg/mL | 4 µg/mL | 64 µg/mL | 16 µg/mL | > 32 µg/mL | > 32 µg/mL | > 32 µg/mL | > 32 µg/mL | > 32 µg/mL | > 32 µg/mL | > 32 µg/mL | > 32 µg/mL | > 32 µg/mL | > 32 µg/mL | > 32 µg/mL | > 32 µg/mL | > 32 µg/mL | MIC (Escherichia coli [19]): > 32 µg/mL; MIC (Escherichia coli [20]): > 32 µg/mL; MIC (Pseudomonas aeruginosa [21]): > 32 µg/mL; MIC (Pseudomonas aeruginosa [22]): > 32 µg/mL; MIC (Pseudomonas aeruginosa [23]): > 32 µg/mL; MIC (Pseudomonas aeruginosa [24]): > 32 µg/mL; MIC (Pseudomonas aeruginosa [25]): > 32 µg/mL; MIC [26]: > 32 µg/mL; MIC [27]: > 32 µg/mL; MIC [28]: > 32 µg/mL; MIC [29]: > 32 µg/mL; MIC [30]: > 32 µg/mL; MIC (Acinetobacter baumannii [31]): > 32 µg/mL; MIC (Acinetobacter baumannii [32]): > 32 µg/mL; MIC (Acinetobacter baumannii [33]): > 32 µg/mL; MIC (Acinetobacter baumannii [34]): > 32 µg/mL; MIC (Acinetobacter baumannii [35]): > 32 µg/mL
2 | N=C(N)NCCCCN1C(=O)N(CCCCNC(=N)N)C(=O)C(Cc2ccc(C(F)(F)F)cc2)(Cc2ccc(C(F)(F)F)cc2)C1=O.O=C(O)C(F)(F)F.O=C(O)C(F)(F)F | 104 µg/mL | > 449 µg/mL | 64 µg/mL | 8 µg/mL | 0.25 µg/mL | 2 µg/mL | 74 µg/mL | 4 µg/mL | 4 µg/mL | 4 µg/mL | 4 µg/mL | 8 µg/mL | 32 µg/mL | 8 µg/mL | 32 µg/mL | > 32 µg/mL | 32 µg/mL | 32 µg/mL | 16 µg/mL | 32 µg/mL | MIC (Escherichia coli [19]): 32 µg/mL; MIC (Escherichia coli [20]): 16 µg/mL; MIC (Pseudomonas aeruginosa [21]): > 32 µg/mL; MIC (Pseudomonas aeruginosa [22]): > 32 µg/mL; MIC (Pseudomonas aeruginosa [23]): > 32 µg/mL; MIC (Pseudomonas aeruginosa [24]): > 32 µg/mL; MIC (Pseudomonas aeruginosa [25]): > 32 µg/mL; MIC [26]: > 32 µg/mL; MIC [27]: > 32 µg/mL; MIC [28]: > 32 µg/mL; MIC [29]: > 32 µg/mL; MIC [30]: > 32 µg/mL; MIC (Acinetobacter baumannii [31]): > 32 µg/mL; MIC (Acinetobacter baumannii [32]): > 32 µg/mL; MIC (Acinetobacter baumannii [33]): > 32 µg/mL; MIC (Acinetobacter baumannii [34]): > 32 µg/mL; MIC (Acinetobacter baumannii [35]): > 32 µg/mL
